# Data reported in patent US12441703B2, “Carboxamides as modulators of sodium channels” (VERTEX PHARMACEUTICALS INCORPORATED, priority 2019, dated 2025).
# Target: human NaV 1.8 (Homo sapiens, UniProt Q9Y5Y9)
# Test: E-VIPR assay for detecting and measuring NaV inhibition properties
# Format: cell-based
# Details: E-VIPR assay conducted in the presence of human serum; HEK cells expressing truncated human NaV 1.8
# How it was run: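 Membrane-potential (coumarin/oxonol) readout after 10 s of 10 Hz biphasic electrical stimulation on E-VIPR. Compounds: 11-point 3-fold dilutions, […], 0.625% DMSO, 30 min at room temperature, human serum optional. Cells: HEK expressing truncated human NaV1.8 co-transduced with KIR2.1.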
# Sequence of human NaV 1.8 (Q9Y5Y9 whole entry, looked up): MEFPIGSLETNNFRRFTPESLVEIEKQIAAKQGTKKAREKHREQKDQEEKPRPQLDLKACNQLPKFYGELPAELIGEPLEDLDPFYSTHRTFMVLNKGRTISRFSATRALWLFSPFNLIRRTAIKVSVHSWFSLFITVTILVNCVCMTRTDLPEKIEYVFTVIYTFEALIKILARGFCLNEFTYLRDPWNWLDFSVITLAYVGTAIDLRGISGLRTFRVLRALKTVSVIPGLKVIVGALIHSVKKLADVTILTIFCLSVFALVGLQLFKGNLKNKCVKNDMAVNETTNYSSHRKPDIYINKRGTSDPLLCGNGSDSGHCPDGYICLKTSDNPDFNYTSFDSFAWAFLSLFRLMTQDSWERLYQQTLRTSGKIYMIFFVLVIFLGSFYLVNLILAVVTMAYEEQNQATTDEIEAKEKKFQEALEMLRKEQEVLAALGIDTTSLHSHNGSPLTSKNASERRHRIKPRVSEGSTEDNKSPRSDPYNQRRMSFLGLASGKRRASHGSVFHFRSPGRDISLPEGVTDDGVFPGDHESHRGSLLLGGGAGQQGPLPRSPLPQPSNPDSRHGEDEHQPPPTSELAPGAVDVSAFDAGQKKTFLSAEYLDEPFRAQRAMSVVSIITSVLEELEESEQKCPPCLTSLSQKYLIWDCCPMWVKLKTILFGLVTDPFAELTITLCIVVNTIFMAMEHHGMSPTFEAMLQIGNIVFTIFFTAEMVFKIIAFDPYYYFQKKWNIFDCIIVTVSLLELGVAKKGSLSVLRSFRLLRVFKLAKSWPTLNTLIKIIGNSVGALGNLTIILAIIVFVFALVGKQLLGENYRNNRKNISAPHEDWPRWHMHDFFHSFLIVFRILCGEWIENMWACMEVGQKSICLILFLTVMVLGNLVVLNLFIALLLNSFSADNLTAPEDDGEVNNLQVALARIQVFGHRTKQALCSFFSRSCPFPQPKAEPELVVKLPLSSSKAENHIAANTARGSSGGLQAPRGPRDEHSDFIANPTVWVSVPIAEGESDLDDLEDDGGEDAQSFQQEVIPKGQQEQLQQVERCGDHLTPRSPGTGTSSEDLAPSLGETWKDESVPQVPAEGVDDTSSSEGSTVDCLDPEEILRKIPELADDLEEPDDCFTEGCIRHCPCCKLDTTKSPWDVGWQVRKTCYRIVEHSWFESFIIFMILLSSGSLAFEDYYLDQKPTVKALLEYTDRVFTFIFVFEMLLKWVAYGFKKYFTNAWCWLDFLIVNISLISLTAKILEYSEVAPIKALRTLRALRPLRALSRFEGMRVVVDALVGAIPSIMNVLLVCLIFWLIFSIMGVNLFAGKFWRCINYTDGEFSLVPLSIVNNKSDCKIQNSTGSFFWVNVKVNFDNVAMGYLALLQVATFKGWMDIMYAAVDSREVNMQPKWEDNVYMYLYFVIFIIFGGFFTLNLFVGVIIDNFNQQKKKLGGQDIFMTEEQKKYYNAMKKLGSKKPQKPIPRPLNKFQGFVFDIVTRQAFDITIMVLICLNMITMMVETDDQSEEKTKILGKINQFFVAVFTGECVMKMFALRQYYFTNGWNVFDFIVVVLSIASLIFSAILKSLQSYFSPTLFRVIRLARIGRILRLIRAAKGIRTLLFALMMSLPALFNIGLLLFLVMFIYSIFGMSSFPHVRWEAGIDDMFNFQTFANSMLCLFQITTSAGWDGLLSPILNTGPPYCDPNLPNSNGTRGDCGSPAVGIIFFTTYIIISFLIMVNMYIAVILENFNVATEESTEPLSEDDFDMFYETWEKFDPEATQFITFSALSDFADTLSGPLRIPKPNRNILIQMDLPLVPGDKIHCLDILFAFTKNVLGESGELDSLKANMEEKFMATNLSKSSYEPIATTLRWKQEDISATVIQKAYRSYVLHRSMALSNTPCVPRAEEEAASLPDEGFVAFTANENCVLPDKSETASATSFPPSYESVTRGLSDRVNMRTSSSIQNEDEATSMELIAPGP
row,SMILES,IC50
1,"COc1cc(OC(F)(F)F)ccc1Oc1ccc(-c2ccccc2)c(F)c1C(=O)Nc1ccnc(C(N)=O)c1 [Compound 177, 4-[[2-fluoro-6-[2-methoxy-4-(trifluoromethoxy)phenoxy]-3-phenyl-benzoyl]amino]pyridine-2-carboxamide]",20 nM

# Same assay, conditions: E-VIPR assay conducted in the presence of human serum; HEK cells expressing truncated human NaV 1.8; read-out: IC50
row,IC50,SMILES
1,> 3000 nM,"NC(=O)c1cc(NC(=O)c2ccc(C(F)(F)F)cc2Oc2ccc(F)c(F)c2)ccn1 [Compound 163, 4-[[2-(3,4-difluorophenoxy)-4-(trifluoromethyl)benzoyl]amino]pyridine-2-carboxamide]"
2,> 3000 nM,"CC(C)Oc1ccc(Oc2cc(C(F)(F)F)ccc2C(=O)Nc2ccnc(C(N)=O)c2)cc1 [Compound 164, 4-[[2-(4-isopropoxyphenoxy)-4-(trifluoromethyl)benzoyl]amino]pyridine-2-carboxamide]"
3,> 3000 nM,"NC(=O)c1cc(NC(=O)c2ccc(C(F)(F)F)cc2Oc2ccc(F)c3c2OCC3)ccn1 [Compound 165, 4-[[2-[(4-fluoro-2,3-dihydrobenzofuran-7-yl)oxy]-4-(trifluoromethyl)benzoyl]amino]pyridine-2-carboxamide]"
4,> 3000 nM,"Cc1cc(Oc2cc(C(F)(F)F)ccc2C(=O)Nc2ccnc(C(N)=O)c2)ccc1F [Compound 166, 4-[[2-(4-fluoro-3-methyl-phenoxy)-4-(trifluoromethyl)benzoyl]amino]pyridine-2-carboxamide]"
5,> 3000 nM,"COc1cc(Oc2cc(C(F)(F)F)ccc2C(=O)Nc2ccnc(C(N)=O)c2)ccc1F [Compound 167, 4-[[2-(4-fluoro-3-methoxy-phenoxy)-4-(trifluoromethyl)benzoyl]amino]pyridine-2-carboxamide]"
6,230 nM,"COc1cc(OC(F)(F)F)ccc1Oc1cc(-c2ccc(F)cc2)cc(F)c1C(=O)Nc1ccc(C(N)=O)nc1 [Compound 170, 5-[[2-fluoro-4-(4-fluorophenyl)-6-[2-methoxy-4-(trifluoromethoxy)phenoxy]benzoyl]amino]pyridine-2-carboxamide]"
7,9 nM,"COc1cc(OC(F)(F)F)ccc1Oc1cc(-c2ccc(Cl)cc2)cc(F)c1C(=O)Nc1ccnc(C(N)=O)c1 [Compound 171, 4-[[4-(4-chlorophenyl)-2-fluoro-6-[2-methoxy-4-(trifluoromethoxy)phenoxy]benzoyl]amino]pyridine-2-carboxamide]"
8,50 nM,COc1cc(OC(F)(F)F)ccc1Oc1cc(-c2ccc(C(C)(C)C)cc2)cc(F)c1C(=O)Nc1ccnc(C(N)=O)c1 [Compound 172]
9,1300 nM,"[2H]C([2H])([2H])Oc1cc(OC(F)(F)F)ccc1Oc1cc(C(F)(F)F)cnc1C(=O)Nc1ccnc(C(N)=O)c1 [Compound 173, N-(2-carbamoyl-4-pyridyl)-3-[2-(trideuteriomethoxy)-4-(trifluoromethoxy)phenoxy]-5-(trifluoromethyl)pyridine-2-carboxamide]"
10,> 3000 nM,"[2H]C([2H])([2H])Oc1cc(OC(F)(F)F)ccc1Oc1cc(C(F)(F)F)cnc1C(=O)Nc1ccc(C(N)=O)nc1 [Compound 174, N-(6-carbamoyl-3-pyridyl)-3-[2-(trideuteriomethoxy)-4-(trifluoromethoxy)phenoxy]-5-(trifluoromethyl)pyridine-2-carboxamide]"
11,490 nM,"NC(=O)c1ccc(NC(=O)c2c(Oc3ccc(F)cc3Cl)ccc(C(F)(F)F)c2F)cn1 [Compound 176, 5-[[6-(2-chloro-4-fluoro-phenoxy)-2-fluoro-3-(trifluoromethyl)benzoyl]amino]pyridine-2-carboxamide]"
12,27 nM,"CCc1cc(C(F)(F)F)cc(Oc2ccc(OC(F)(F)F)cc2OC)c1C(=O)Nc1ccnc(C(N)=O)c1 [Compound 178, 4-[[2-ethyl-6-[2-methoxy-4-(trifluoromethoxy)phenoxy]-4-(trifluoromethyl)benzoyl]amino]pyridine-2-carboxamide]"
13,2000 nM,"COc1c(Oc2ccc(C(F)(F)F)c(C)c2C(=O)Nc2ccc(C(N)=O)nc2)ccc(F)c1F [Compound 179, 5-[[6-(3,4-difluoro-2-methoxy-phenoxy)-2-methyl-3-(trifluoromethyl)benzoyl]amino]pyridine-2-carboxamide]"
14,510 nM,"COc1c(Oc2ccc(C(F)(F)F)c(C)c2C(=O)Nc2cc(C(N)=O)ncc2C)ccc(F)c1F [Compound 180, 4-[[6-(3,4-difluoro-2-methoxy-phenoxy)-2-methyl-3-(trifluoromethyl)benzoyl]amino]-5-methyl-pyridine-2-carboxamide]"
15,12 nM,"COc1cc(OC(F)(F)F)ccc1Oc1ccc(C2CC2)c(C)c1C(=O)Nc1ccnc(C(N)=O)c1 [Compound 181, 4-[[3-cyclopropyl-6-[2-methoxy-4-(trifluoromethoxy)phenoxy]-2-methyl-benzoyl]amino]pyridine-2-carboxamide]"
16,290 nM,COc1cc(OC(F)(F)F)ccc1Oc1ccc(C2CC2)c(C)c1C(=O)Nc1ccc(C(N)=O)nc1 [Compound 182]
17,14 nM,"CCc1c(C(F)(F)F)ccc(Oc2ccc(OC(F)(F)F)cc2OC)c1C(=O)Nc1ccnc(C(N)=O)c1 [Compound 183, 4-[[2-ethyl-6-[2-methoxy-4-(trifluoromethoxy)phenoxy]-3-(trifluoromethyl)benzoyl]amino]pyridine-2-carboxamide]"

row,IC50,SMILES
1,140 nM,CCc1c(C(F)(F)F)ccc(Oc2ccc(OC(F)(F)F)cc2OC)c1C(=O)Nc1ccc(C(N)=O)nc1 [Compound 184]
2,11 nM,"COc1cc(OC(F)(F)F)ccc1Oc1ccc(CC(C)C)c(C)c1C(=O)Nc1ccnc(C(N)=O)c1 [Compound 185, 4-[[3-isobutyl-6-[2-methoxy-4-(trifluoromethoxy)phenoxy]-2-methyl-benzoyl]amino]pyridine-2-carboxamide]"
3,110 nM,"COc1cc(OC(F)(F)F)ccc1Oc1cc(C(F)(F)F)cc(C)c1C(=O)Nc1cc(C(N)=O)ncc1C [Compound 186, 4-[[2-[2-methoxy-4-(trifluoromethoxy)phenoxy]-6-methyl-4-(trifluoromethyl)benzoyl]amino]-5-methyl-pyridine-2-carboxamide]"
4,490 nM,"COc1cc(OC(F)(F)F)ccc1Oc1cc(C(F)(F)F)cc(C)c1C(=O)Nc1ccc(C(N)=O)nc1 [Compound 187, 5-[[2-[2-methoxy-4-(trifluoromethoxy)phenoxy]-6-methyl-4-(trifluoromethyl)benzoyl]amino]pyridine-2-carboxamide]"
5,170 nM,"COc1c(Oc2cc(C(F)(F)F)cc(C)c2C(=O)Nc2ccnc(C(N)=O)c2)ccc(F)c1F [Compound 189, 4-[[2-(3,4-difluoro-2-methoxy-phenoxy)-6-methyl-4-(trifluoromethyl)benzoyl]amino]pyridine-2-carboxamide]"
6,1500 nM,"Cc1c(C(F)(F)F)ccc(Oc2ccc(F)cc2Cl)c1C(=O)Nc1ccc(C(N)=O)nc1 [Compound 190, 5-[[6-(2-chloro-4-fluoro-phenoxy)-2-methyl-3-(trifluoromethyl)benzoyl]amino]pyridine-2-carboxamide]"
7,2 nM,"COc1cc(OC(F)(F)F)ccc1Oc1ccc(C(F)(F)F)c(Cl)c1C(=O)Nc1ccnc(C(N)=O)c1 [Compound 191, 4-[[2-chloro-6-[2-methoxy-4-(trifluoromethoxy)phenoxy]-3-(trifluoromethyl)benzoyl]amino]pyridine-2-carboxamide]"
8,4 nM,NC(=O)c1cc(NC(=O)c2c(Oc3ccc(OC(F)(F)F)cc3Cl)ccc(C(F)(F)F)c2Cl)ccn1 [Compound 192]
9,6 nM,COc1c(Oc2ccc(C(F)(F)F)c(Cl)c2C(=O)Nc2ccnc(C(N)=O)c2)ccc(F)c1F [Compound 193]
10,2 nM,"COc1cc(OC(F)(F)F)ccc1Oc1ccc(C(F)(F)F)c(Br)c1C(=O)Nc1ccnc(C(N)=O)c1 [Compound 194, 4-[[2-bromo-6-[2-methoxy-4-(trifluoromethoxy)phenoxy]-3-(trifluoromethyl)benzoyl]amino]pyridine-2-carboxamide]"
11,5 nM,COc1c(Oc2ccc(C(F)(F)F)c(Br)c2C(=O)Nc2ccnc(C(N)=O)c2)ccc(OC(F)(F)F)c1F [Compound 195]
12,9 nM,"COc1c(Oc2ccc(C3CC3)c(C)c2C(=O)Nc2ccnc(C(N)=O)c2)ccc(OC(F)(F)F)c1F [Compound 196, 4-[[3-cyclopropyl-6-[3-fluoro-2-methoxy-4-(trifluoromethoxy)phenoxy]-2-methyl-benzoyl]amino]pyridine-2-carboxamide]"
13,120 nM,"COc1c(Oc2ccc(C3CC3)c(C)c2C(=O)Nc2ccc(C(N)=O)nc2)ccc(OC(F)(F)F)c1F [Compound 197, 5-[[3-cyclopropyl-6-[3-fluoro-2-methoxy-4-(trifluoromethoxy)phenoxy]-2-methyl-benzoyl]amino]pyridine-2-carboxamide]"
14,15 nM,"COc1cc(OC(F)(F)F)ccc1Oc1ccc(C2CC2)c(C)c1C(=O)Nc1cc(C(N)=O)ncc1C [Compound 198, 4-[[3-cyclopropyl-6-[2-methoxy-4-(trifluoromethoxy)phenoxy]-2-methyl-benzoyl]amino]-5-methyl-pyridine-2-carboxamide]"
15,21 nM,"Cc1c(C2CC2)ccc(Oc2ccc(OC(F)(F)F)cc2Cl)c1C(=O)Nc1ccnc(C(N)=O)c1 [Compound 199, 4-[[6-[2-chloro-4-(trifluoromethoxy)phenoxy]-3-cyclopropyl-2-methyl-benzoyl]amino]pyridine-2-carboxamide]"
16,85 nM,"COc1cc(OC(F)(F)F)ccc1Oc1cc(C(F)F)cc(C)c1C(=O)Nc1ccnc(C(N)=O)c1 [Compound 200, 4-[[4-(difluoromethyl)-2-[2-methoxy-4-(trifluoromethoxy)phenoxy]-6-methyl-benzoyl]amino]pyridine-2-carboxamide]"

row,SMILES,IC50
1,"COc1cc(OC(F)(F)F)ccc1Oc1cc(C(F)(F)F)cc(C)c1C(=O)Nc1ccnc(C(N)=O)c1 [Compound 188, 4-[[2-[2-methoxy-4-(trifluoromethoxy)phenoxy]-6-methyl-4-(trifluoromethyl)benzoyl]amino]pyridine-2-carboxamide]",24 nM
